Measurements published in patent US20060115815A1 (priority 2002, published 2006).
Like-named read-outs stand apart in the source and are kept apart here.

What was measured:
[1] = molecular target: recombinant HIV-1 protease (Human immunodeficiency virus type 1 group M subtype B, UniProt P04585); assay: biochemical; assay type: biochemical; details: for IC50: read-out: Enzymatic assay WT IC50/nM; for Ki: read-out: Enzymatic assay Ki
[2] = test system: mutant HIV-1 with I84V/L90M mutations in the protease gene; assay type: cell-based; details: MT-4, 84V90M; read-out: Cell-based assay (MT-4) EC50/nM 84V90M
WT HIV-1 = assay: microbe, parasite or virus in culture; assay type: cell-based
84V90M [3] = molecular target: T1, 84V90M (Human immunodeficiency virus type 1 group M subtype B, UniProt P04585, I572V/L578M); assay: Enzymatic assay, IC50 against 84V90M mutant protease; assay type: biochemical, HIV-1
30N82I88D [4] = test system: 30N82I88D; set-up: species or system HIV-1; details: MT-4, 30N82I88D; read-out: Cell-based assay (MT-4) EC50/nM 30N82I88D
48V54V82A [5] = test system: 48V54V82A; set-up: species or system HIV-1; details: MT-4, 48V54V82A; read-out: Cell-based assay (MT-4) EC50/nM 48V54V82A
48V54V82S = test system: 48V54V82S; set-up: species or system HIV-1; details: MT-4, 48V54V82S; read-out: Cell-based assay (MT-4) EC50/nM 48V54V82S
48V82A90M = test system: 48V82A90M; set-up: species or system HIV-1; details: MT-4, 48V82A90M; read-out: Cell-based assay (MT-4) EC50/nM 48V82A90M
46I50V [6] = test system: 46I50V; set-up: species or system HIV-1; details: MT-4, 46I50V; read-out: Cell-based assay (MT-4) EC50/nM 46I50V
[7] = test system: wild-type HIV-1 strain IIIB; assay: microbe, parasite or virus in culture; assay type: cell-based; details: read-out: EC50
[8] = test system: recombinant HIV-1 strains with resistance mutations in the protease gene; assay: Cross-resistance profile assay, whole panel of mutant viruses; assay type: cell-based; details: {}
[9] = beagle, dog, in vivo, po
84V90M [10] = molecular target: T1, 84V90M; assay: biochemical; set-up: species or system HIV-1
WT = assay: microbe, parasite or virus in culture; assay type: cell-based, HIV-1; details: Human immunodeficiency virus 1, read-out: Cell-based assay (MT-4) EC50 WT
84V90M [11] = molecular target: T1, 84V90M; assay: cell-based; set-up: species or system HIV-1
30N82I88D [12] = assay: microbe, parasite or virus in culture; assay type: cell-based, HIV-1; details: Human immunodeficiency virus 1, read-out: Cell-based assay (MT-4) EC50 30N82I88D
48V54V82A [13] = assay: microbe, parasite or virus in culture; assay type: cell-based, HIV-1; details: Human immunodeficiency virus 1, read-out: Cell-based assay (MT-4) EC50 48V54V82A
46I50V [14] = assay: microbe, parasite or virus in culture; assay type: cell-based, HIV-1; details: Human immunodeficiency virus 1, read-out: Cell-based assay (MT-4) EC50 46I50V
[15] = MT-4, WT, read-out: Cell-based assay (MT-4) EC50/nM WT

SMILES	IC50 [1]	EC50 [2]	EC50 (WT HIV-1; [15])	IC50 (84V90M [3])	EC50 (30N82I88D [4])	EC50 (48V54V82A [5])	Ki [1]	further results
CCOP(=O)(CNC(=O)Oc1ccc(C[C@@H]2[C@H](O)[C@@H](O)[C@@H](Cc3ccc(OC)cc3)N(Cc3cccc(N)c3)C(=O)N2Cc2cccc(N)c2)cc1)OCC [R=OCH3, R1=Ph-mNH2, R2=OCONH(CH2)PO3Et2]	9.9 nM	2150 nM	58 nM	85 nM	68 nM	223 nM	–	EC50 (48V54V82S): 203 nM; EC50 (48V82A90M): 185 nM; EC50 (46I50V [6]): 104 nM
CCOP(=O)(COc1ccc(CC(NC(=O)OC2COC3OCCC23)C(O)CN(CC(C)C)S(=O)(=O)c2ccc(OC)cc2)cc1)OCC (centres unmarked) [drawing 651 R1=OEt R2=OEt]	–	–	–	–	–	–	–	EC50 [7]: < 50 nM; CC50 (MT-2 cells): 5000 to 50000 nM
O=C1N(Cc2ccccc2)[C@H](Cc2ccccc2)[C@H](O)[C@@H](O)[C@@H](Cc2ccccc2)N1Cc1ccc2[nH]nc(O)c2c1	6.6 nM	> 600 nM	1230 nM	85 nM	869 nM	774 nM	0.42 nM	EC50 (46I50V [6]): 937 nM
N#Cc1cc(CN2C(=O)N(Cc3cccc(OCc4ccccc4)c3)[C@H](Cc3ccccc3)[C@H](O)[C@@H](O)[C@H]2Cc2ccccc2)ccc1F	302 nM	> 600 nM	–	114 nM	–	–	1.43 nM	–
CCOC(=O)C(C)OP(=O)(COc1ccc(C[C@@H]2[C@H](O)[C@@H](O)[C@@H](Cc3ccccc3)N(Cc3ccccc3)C(=O)N2Cc2ccccc2)cc1)Oc1ccccc1 (some centres unmarked) [R=H, R1=Ph, R2=Mono-lac-Et]	6.6 nM	> 6000 nM	1730 nM	56 nM	2790 nM	> 6000 nM	0.12 nM	–
CCOP(=O)(COc1ccc(C[C@H](NC(=O)O[C@H]2CO[C@H]3OCC[C@H]32)[C@H](O)CN(CC(C)C)S(=O)(=O)c2ccc(OC)cc2)cc1)OCC [Compound 13]	–	–	–	–	–	–	–	CC50 (MT-2 cells): 50000 nM
Cc1c(O)cccc1C(=O)N[C@@H](CSc1ccccc1)[C@H](O)CN1C[C@H]2CCCC[C@H]2C[C@H]1C(=O)NC(C)(C)C [Nelfinavir]	–	–	–	–	–	–	–	EC50 (WT HIV-1; Human immunodeficiency virus 1, read-out: EC50 [nM] WT HIV-1): 14 nM; Total No. of Resistant Viruses [8]: 9; AUC(2-24 hr) in PBMCs [9]: 33,000 nM · hr; t1/2 [9]: 3.0 h; t1/2 (hr) in PBMCs [9]: 3.0 h
COc1ccc(CN2C(=O)N(Cc3ccc(O)cc3)[C@H](Cc3ccccc3)[C@H](O)[C@@H](O)[C@H]2Cc2ccccc2)cc1C#N	130 nM	3120 nM	2010 nM	348 nM	–	–	> 5 nM	–
CCOP(=O)(CCCNC(=O)c1cccc(CN2C(=O)N(Cc3cccc(N)c3)C(Cc3ccccc3)C(O)C(O)C2Cc2ccccc2)c1)OCC (centres unmarked)	–	–	–	–	–	–	–	IC50 (84V90M [10]): 29 nM; EC50 (WT): 176 nM; EC50 (84V90M [11]): 824 nM; EC50 (30N82I88D [12]): 171 nM; EC50 (48V54V82A [13]): 233 nM; EC50 (46I50V [14]): 195 nM
CCOC(=O)C(C)NP(=O)(COc1ccc(C[C@@H]2[C@H](O)[C@@H](O)[C@@H](Cc3ccccc3)N(Cc3ccccc3)C(=O)N2Cc2ccccc2)cc1)Oc1ccccc1 (some centres unmarked) [R=H, R1=Ph, R2=Mono-Ala-Et]	5 nM	2940 nM	310 nM	50 nM	238 nM	2850 nM	–	EC50 (48V54V82S): 1950 nM; EC50 (48V82A90M): 2450 nM; EC50 (46I50V [6]): 1250 nM
Nc1n[nH]c2ccc(CN3C(=O)N(Cc4cccc(OCc5ccccc5)c4)C(Cc4ccccc4)C(O)C(O)C3Cc3ccccc3)cc12 (centres unmarked) [m-OBn]	–	–	–	–	–	–	–	IC50 (84V90M [10]): 27 nM; EC50 (WT): 218 nM; EC50 (84V90M [11]): 2420 nM; EC50 (30N82I88D [12]): 82 nM; EC50 (48V54V82A [13]): 709 nM; EC50 (46I50V [14]): 601 nM
Nc1n[nH]c2ccc(CN3C(=O)N(CCCOCP(=O)(O)O)C(Cc4ccccc4)C(O)C(O)C3Cc3ccccc3)cc12 (centres unmarked) [OCH2PO3H2]	–	–	–	–	–	–	–	IC50 (84V90M [10]): 137 nM; EC50 (WT): 1070 nM; EC50 (84V90M [11]): > 6000 nM
